Reference: patent US12721836B2, “Alpha-methyl-L-tryptophan as an orally active drug for treating or preventing metabolic conditions” (Texas Tech University System, priority 2021, dated 2026)
Entries after “also recorded” stand apart in the source; their conditions may differ.

Columns and labels:
[1] = Body weight in Slc6a14-null male mice on high-fat diet (D- vs L-isomer); type: in vivo; conditions: Slc6a14-null male mice on HFD; 1 mg/ml in drinking water, one week
From the text: (§1) C57B16 mice and oblob (leptin-deficient) mice were from Jackson Laboratories (Bar Harbor, ME). Slc6a14-null mice (Slc6a14^y/− males and Slc6a14^−/− females) on C57BU/6 background were generated in Applicant's lab and have been used to assess the role of this transporter in breast cancer and colon cancer. Mice had free access to water and diet ad libitum. Age- and gender-matched mice were used in control groups (no treatment). Mice were fed a normal diet (ND) (50 IF/6F 5V5R, Labdiet, St. Louis, MO) or a high-fat diet (HFD; 55% calorie from fat) (TD93075; Teklad diets, Madison, WI). The protocol was approved by the Institutional Animal Care and Use Committee of the Texas Tech University Health Sciences Center, Lubbock, TX, USA (IACUC approval number: 15002 for breeding protocol and 18005 for experimental protocol).
Next, Applicant aimed to determine which isomer in the enantiomeric mixture of α-methyltryptophan elicited a weight-reducing effect. For this, Applicant used the Slc6a14-null male mice on a high-fat diet as a model of obesity. Applicant selected this mouse model of obesity for initial experiments because the weight-reducing effect of α-MT is independent of what the drug does to the transport function of Slc6a14.
Applicant administered the D- and L-isomers separately to these mice on a high-fat diet at a dose of 1 mg/ml in drinking water for one week. […]

[2] = Body weight in wild type male mice on normal or high-fat diet; type: in vivo
From the text: as §1
Administration of α-methyltryptophan to wild type mice on a high-fat diet would make the mice gain more weight as we found in Slc6a14-null male mice. The results turned out to be quite the opposite. When exposed to the drug for 1 week (2 mg/ml in drinking water; DL-enantiomeric mixture, α-MT), untreated wild type male mice on a high-fat diet gained weight whereas mice exposed to the drug lost weight (FIG. 1B). Since the deletion of Slc6a14 increased the weight gain whereas administration of α-MT to wild type mice decreased the weight gain, the effect of the drug on the body weight has little to do with its ability to block the transporter.
Next, Applicant examined the effect of α-MLT on the body weight in WT C57BL/6 male mice on a normal diet or a high-fat diet (55% calories from fat). The drug was given in drinking water (1 mg/ml). Both with the normal diet and the high-fat diet, mice gained weight when not treated with α-MLT (FIGS. 2A-B). […] This weight-reducing effect was evident with both diets.
(§2) When the drug was withdrawn, mice began to gain weight (FIG. 2B). At 4-weeks of drug exposure, circulating levels of glucose and leptin were measured. Blood glucose was higher in control (i.e., untreated) mice on the high-fat diet than in those on the normal diet (FIGS. 2C-2D). The same was true with leptin levels, which correspond to fat content (FIGS. 2C-2D).

[3] = Hepatic steatosis (Oil-red-O staining) in wild type mice on high-fat diet; type: in vivo; conditions: WT mice on HFD 14 weeks; treatment during last two weeks
Description: Liver tissue was excised and weighed immediately, snap-frozen in liquid nitrogen, and stored at −80° C. For Oil-red-O (ORO) staining, tissues were OCT embedded, frozen at −20° C., and cut, followed by staining. Slides made from formalin-fixed, paraffin-embedded liver blocks were stained with hematoxylin and eosin (H & E).
Wild type mice developed fatty liver when fed a high-fat diet for 14 weeks as evident from Oil-red-O staining of the liver sections for neutral lipids (FIG. 3E). […] In this experiment, mice were fed the high-fat diet for 12-weeks, after which the mice were divided into two groups, one with no α-MLT exposure and the other with α-MLT administration. The drug treatment was continued for two additional weeks, and all through the experiment, both groups were continuously fed the same high-fat diet.

[4] = Body weight and other parameters in wild type female mice; type: in vivo; conditions: 1 mg/ml in drinking water, 2 weeks
Description: The experiments described above were done with male mice. To see if α-MLT elicits a similar weight-loss effect in female mice, wild type female mice were exposed to α-MLT (1 mg/ml in drinking water) at 3 months of age. The untreated mice gained weight and α-MLT-exposed mice lost weight (FIG. 4A). At end of 2 weeks treatment, mice were killed and mammary fat pad and liver were excised and weighed. The weights of both tissues decreased in the treated mice (FIGS. 4B-C).

[5] = Liver and abdominal fat pad weight in wild type mice on high-fat diet; type: in vivo; conditions: WT male mice on HFD; 1 mg/ml in drinking water
Description: (§3) Applicant then performed glucose-tolerance test in control and α-MLT-treated (2-week treatment; 1 mg/ml in drinking water) mice which were fed the high-fat diet for 12 weeks. […] At the end of the experiment, mice were killed, and liver and abdominal fat pad were excised and weighed. Treatment with α-MLT reduced the weight of the liver and the abdominal fat (FIGS. 3C-D).

[6] = Circulating glucose and leptin in wild type male mice; type: in vivo; conditions: WT male mice, ND or HFD (independent of diet); 4 weeks, 1 mg/ml in drinking water; 4-h fasting
Description: Animals were fasted for 4 h and blood was collected as described above. Blood samples were centrifuged at 1500×g for 20 min and the serum samples were collected and kept at −80° C. until analyzed. Leptin was measured using the mouse/rat Quantikine ELISA kit (MOB00B, R & D Systems, MN).
as §2, §3

[7] = Serum metabolic panel (lipid profile, kidney and liver function) in wild type mice on high-fat diet; type: in vivo; conditions: WT mice on HFD, 1 mg/ml in drinking water, 4 weeks
Description: At the end of the experiment, mice were fasted for 4 h, and blood was collected via orbital sinus using local anesthesia proparacaine. Serum was prepared by centrifugation of the clotted blood, and used for metabolic panel. This was done at our Laboratory Animal Resources Center.
Applicant evaluated the serum profile for metabolites and enzymes to assess the impact of α-MLT (4 weeks treatment; 1 mg/ml in drinking water) in normal mice which were on the high-fat diet for three months prior to initiation of the drug treatment. These tests were designed to assess the function of the kidneys and liver.

[8] = Body weight, food intake, glucose and glucose tolerance in oblob mice on normal diet; type: in vivo
Description: (§4) Intraperitoneal GTT was done in mice fasted for 4 h. Blood glucose was determined using the TRUE track blood glucose monitor (Trividia Health Inc, Fort Lauderdale, FL) at 0, 15, 30, 60, 90 and 120 min after i.p. injection of glucose (2 g/kg body weight).
oblob mice are deficient in leptin and therefore obese even on a normal diet. […] Applicant used 12-week-old male oblob mice to evaluate the weight-reducing effect of α-MLT (1 mg/ml in drinking water). There was a gradual weight gain on a normal diet in control mice without the drug (FIG. 5A). In contrast, mice exposed to α-MLT lost weight. At the end of 3-week drug exposure, the reversibility of α-MLT effect was evaluated by withdrawing the drug. […] At the end of the three-week treatment with α-MLT, mice were killed and the weights of the liver and abdominal fat pad were determined.
Applicant also monitored food intake, blood glucose, and glucose tolerance in control mice and α-MLT-treated mice.

[9] = rats; orally 150 mg/kg per day; cited from earlier work
[10] = Intraperitoneal glucose tolerance test in wild type mice on high-fat diet; type: in vivo; conditions: WT mice fed HFD 12 weeks; 2-week treatment, 1 mg/ml in drinking water
Description: as §4, §3

[11] = oblob male mice on normal diet, 1 mg/ml in drinking water, three weeks
[12] = oblob mice on normal diet, three-week treatment

C[C@@](N)(Cc1c[nH]c2ccccc12)C(=O)O [α-MDT, α-methyl-D-tryptophan, reference compound]
weight-reducing effect (body weight) [1]: negligible effect

CC(N)(Cc1c[nH]c2ccccc12)C(=O)O (racemic) [α-MT, α-methyl-DL-tryptophan]
body weight gain/loss ([2]; wild type male mice on HFD, 2 mg/ml in drinking water, 1 week): lost weight

C[C@](N)(Cc1c[nH]c2ccccc12)C(=O)O [α-MLT, α-methyl-L-tryptophan]
hepatic steatosis (Oil-red-O neutral lipids) [3]: almost completely prevented | blood glucose level [4]: decreased | body weight [4]: lost weight | liver weight [4]: decreased | mammary fat pad weight [4]: decreased | serum leptin level [4]: decreased | weight of the abdominal fat [5]: reduced | weight of the liver [5]: reduced | circulating level of glucose [6]: significant decrease | circulating level of leptin [6]: significant decrease | kidney function (blood urea nitrogen, creatinine) [7]: no evidence of compromise in kidney function | liver function (bilirubin, AST) [7]: no compromise in liver function | AST ([7]; mean ± S.E.M, N=5): 79.5 ± 16.3 U/I | Albumin ([7]; mean ± S.E.M, N=5): 1.90 ± 0.04 g/dL | BUN ([7]; mean ± S.E.M, N=5): 34.2 ± 2.6 mg/dL | Creatinine ([7]; mean ± S.E.M, N=5): 0.30 ± 0.04 mg/dL | Globulin ([7]; mean ± S.E.M, N=5): 2.35 ± 0.09 g/dL | Total bilirubin ([7]; mean ± S.E.M, N=5): 0.6 ± 0.1 mg/dL | Total protein ([7]; mean ± S.E.M, N=5): 4.25 ± 0.06 g/dL | serum Cholesterol ([7]; mean ± S.E.M, N=5): 106 ± 3 mg/dL | serum Triglycerides ([7]; mean ± S.E.M, N=5): 97 ± 17 mg/dL | weight-reducing effect (body weight) [1]: active as a weight-reducing agent | body weight ([8]; 12-week-old male oblob mice on normal diet, 1 mg/ml in drinking water, 3 weeks): lost weight; also recorded: decreased | food intake ([8]; oblob male mice on normal diet, 1 mg/ml in drinking water): decreased food intake | blood glucose [8, 11]: lower | insulin sensitivity (glucose tolerance test) [8, 11]: improved insulin sensitivity | abdominal fat [8, 12]: significantly reduced | liver weight [8, 12]: significantly reduced | reversibility of effect on body weight ([8]; oblob mice, drug withdrawn after 3-week exposure): started gaining weight | adverse effects [9]: no noticeable adverse effects | glucose tolerance (i.p. GTT) [10]: better glucose tolerance | onset of weight-reducing effect ([2]; 1 mg/ml in drinking water): within a day | body weight ([2]; WT C57BL/6 male mice on normal diet or high-fat diet (both diets), 1 mg/ml in drinking water): decrease in body weight | reversibility of effect on body weight ([2]; upon withdrawal of the drug): reversible
